Counter-ions that a name gives are not always drawn.
Biological target: PAI-1 (Homo sapiens, UniProt P05121)
Assay: PAI chromogenic substrate assay (first S2251 assay, tPA/plasminogen system)
Assay type: biochemical
In short: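 Compound preincubated with PAI-1, then added to a tPA/plasminogen system; residual tPA activity generates plasmin, which cleaves chromogenic substrate S2251, releasing p-nitroaniline read at 405 nm.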

Sequence of PAI-1 (P05121 24-402): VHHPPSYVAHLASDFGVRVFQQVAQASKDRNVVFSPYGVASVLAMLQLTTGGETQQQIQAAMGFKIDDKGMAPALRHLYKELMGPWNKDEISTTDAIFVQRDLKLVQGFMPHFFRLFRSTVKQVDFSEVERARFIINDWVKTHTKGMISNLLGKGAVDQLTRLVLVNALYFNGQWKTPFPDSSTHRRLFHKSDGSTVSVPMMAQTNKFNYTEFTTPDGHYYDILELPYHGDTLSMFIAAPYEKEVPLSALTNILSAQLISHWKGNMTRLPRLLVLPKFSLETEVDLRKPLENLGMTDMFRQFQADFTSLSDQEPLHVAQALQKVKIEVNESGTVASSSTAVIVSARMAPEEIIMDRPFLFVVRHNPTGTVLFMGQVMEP

SMILES	Inhibition of PAI-1 in the first S2251 chromogenic substrate assay (Concentration 12.5 μm)	Inhibition of PAI-1 in the first S2251 chromogenic substrate assay (Concentration 25 μm)	Inhibition of PAI-1 in the first S2251 chromogenic substrate assay (Concentration 50 μm)	Inhibition of PAI-1 in the first S2251 chromogenic substrate assay (Concentration 100 μm)	Inhibition of PAI-1 in the first S2251 chromogenic substrate assay (Concentration 6.25 μm)	Inhibition of PAI-1 in the first S2251 chromogenic substrate assay (Concentration 2.5 μm)	Inhibition of PAI-1 in the first S2251 chromogenic substrate assay (Concentration 5 μm)	Inhibition of PAI-1 in the first S2251 chromogenic substrate assay (Concentration 10 μm)	Inhibition of PAI-1 in the first S2251 chromogenic substrate assay (Concentration 20 μm)	Inhibition of PAI-1 in the first S2251 chromogenic substrate assay (Concentration 40 μm)
COC(=O)Nc1ccc(/C=c2\[nH]c(=O)/c(=C/c3ccc(OC)cc3)[nH]c2=O)cc1 [Compound 83, (3Z,6Z)-3-(4-Methoxybenzylidene)-6-(4-methoxycarbonylaminobenzylidene)-2,5-piperazinedione]	1%	1%	1%	56%	–	–	–	–	–	–
COc1ccc(/C=c2\[nH]c(=O)/c(=C/c3ccc(O)cc3Cl)[nH]c2=O)cc1 [Compound 84, (3Z,6Z)-3-(2-Chloro-4-hydroxybenzylidene)-6-(4-methoxybenzylidene)-2,5-piperazinedione]	2%	10%	38%	52%	1%	–	–	–	–	–
O=c1[nH]/c(=C\c2ccc(O)cc2Cl)c(=O)[nH]/c1=C\c1ccccc1 [Compound 85, (3Z,6Z)-6-Benzylidene-3-(2-chloro-4-hydroxybenzylidene)-2,5-piperazinedione]	27%	43%	49%	35%	13%	–	–	–	–	–
CC(=O)Nc1ccc(/C=c2\[nH]c(=O)/c(=C/c3ccc(N(C)C)cc3)[nH]c2=O)cc1 [Compound 86, (3Z,6Z)-3-(4-Acetamidobenzylidene)-6-(4-dimethylaminobenzylidene)-2,5-piperazinedione]	41%	48%	37%	23%	31%	–	–	–	–	–
COc1ccc(/C=c2\[nH]c(=O)/c(=C/c3ccc(NC(=O)COC(C)=O)cc3)[nH]c2=O)cc1 [Compound 87, (3Z,6Z)-3-(4-Acetoxyacetylaminobenzylidene)-6-(4-methoxybenzylidene)-2,5-piperazinedione]	28%	70%	81%	78%	0%	–	–	–	–	–
COc1ccc(/C=c2\[nH]c(=O)/c(=C/c3ccc(NC(=O)CO)cc3)[nH]c2=O)cc1 [Compound 88, (3Z,6Z)-3-(4-Hydroxyacetylaminobenzylidene)-6-(4-methoxybenzylidene)-2,5-piperazinedione]	40%	60%	49%	41%	0%	–	–	–	–	–
CN(C)c1ccc(/C=c2\[nH]c(=O)/c(=C/c3ccccc3)[nH]c2=O)c2ccccc12 [Compound 89]	40%	66%	55%	63%	7%	–	–	–	–	–
COc1ccc(/C=c2\[nH]c(=O)/c(=C/c3ccccc3)[nH]c2=O)cc1OC [Compound 90, (3Z,6Z)-6-Benzylidene-3-(3,4-dimethoxybenzylidene)-2,5-piperazinedione]	6%	33%	85%	75%	0%	–	–	–	–	–
COc1ccc(/C=c2\[nH]c(=O)/c(=C/c3ccc(OC)c(OC)c3)[nH]c2=O)cc1 [Compound 91, (3Z,6Z)-3-(3,4-Dimethoxybenzylidene)-6-(4-methoxybenzylidene)-2,5-piperazinedione]	0%	3%	72%	50%	0%	–	–	–	–	–
COc1ccc(/C=c2\[nH]c(=O)/c(=C/c3ccc(NC(C)=O)cc3)[nH]c2=O)cc1OC [Compound 92]	12%	38%	44%	86%	17%	–	–	–	–	–
COC(=O)COc1ccc(/C=c2\[nH]c(=O)/c(=C/c3ccccc3)[nH]c2=O)cc1 [Compound 93, 4-[(3Z,6Z)-6-Benzylidene-2,5-dioxopiperazin-3-ylidene]methylphenoxyacetic acid, methyl ester]	7%	39%	68%	91%	2%	–	–	–	–	–
COC(=O)CCCC(=O)NCc1ccc(/C=c2\[nH]c(=O)/c(=C/c3ccccc3)[nH]c2=O)cc1 [Compound 94, 4-(4-[(3Z,6Z)-6-Benzylidene-2,5-dioxopiperazin-3-ylidene]methylbenzylcarbamoyl) butanoic acid, methyl ester]	76%	83%	62%	31%	43%	–	–	–	–	–
CCOC(=O)CCCCC(=O)NCc1ccc(/C=c2\[nH]c(=O)/c(=C/c3ccccc3)[nH]c2=O)cc1 [Compound 95]	16%	45%	71%	69%	10%	–	–	–	–	–
COC(=O)CCCCOc1ccc(/C=c2\[nH]c(=O)/c(=C/c3ccccc3)[nH]c2=O)cc1 [Compound 96, 5-[4-((3Z,6Z)-6-Benzylidene-2,5-dioxopiperazin-3-ylidene)methylphenoxy]pentanoic acid, methyl ester]	29%	47%	75%	77%	5%	–	–	–	–	–
O=C(O)CCCCOc1ccc(/C=c2\[nH]c(=O)/c(=C/c3ccccc3)[nH]c2=O)cc1 [Compound 97, 5-[4-((3Z,6Z)-6-Benzylidene-2,5-dioxopiperazin-3-ylidene)methylphenoxy]pentanoic acid]	0%	73%	24%	0%	0%	–	–	–	–	–
CN(C)CCCOc1ccc(/C=c2\[nH]c(=O)/c(=C/c3ccccc3)[nH]c2=O)cc1 [Compound 98]	67%	74%	71%	72%	4%	–	–	–	–	–
CN(C)CCOc1ccc(/C=c2\[nH]c(=O)/c(=C/c3ccccc3)[nH]c2=O)cc1 [Compound 99, (3Z,6Z)-6-Benzylidene-3-(4-(2-N,N-dimethylaminoethoxy)benzylidene)-2,5-piperazinedione, hydrochloride]	–	–	–	–	–	0%	0%	17%	48%	68%

Source: patent US5700804A, “Pharmaceutical compounds” (Xenova Limited, priority 1992, dated 1997)
